Laboratory results reported in PubChem BioAssay (NCI).
Where “and” joins values, the source holds several entries; their conditions need not be identical. Equal values may be shown once.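 Each compound was tested at five concentrations against cells in 96-well plates for 48 hours. GI50 marks 50% less growth. TGI denotes the concentration required for complete inhibition of growth.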

Tested on: MDA-MB-468 breast
Assay: inhibition of tumour cell growth, NCI panel, 48 h

| Structure (SMILES) | GI50 | TGI |
| --- | --- | --- |
| Nc1ncc(-c2cnn(C3CCNCC3)c2)cc1-c1nc2ccccc2o1 | 367 nM | 2330 nM |
| Brc1cccc(/C=N/Nc2nc(N/N=C/c3cccc(Br)c3)nc(N3CCOCC3)n2)c1 | 1910 nM | 6090 nM |
| CNC(=O)c1ccc(Nc2ncc(C(F)(F)F)c(NCc3nccnc3N(C)S(C)(=O)=O)n2)cc1 | 1590 nM and 2060 nM and 1980 nM | 4990 nM and 5010 nM and 5290 nM |
| CCCCCCCCN(CCCCCCCC)C(=N)c1ccnc2ccccc12 | 342 nM | 1270 nM |
| CCOC(=O)[C@H](CSSc1ncnc2cc[nH]c12)NC(=O)[C@@H](C)c1ccc2cc(OC)ccc2c1 | 179 nM | 91700 nM |
| Nc1nc(N)c2nc(CNc3ccc(C(=O)CC(CCC(=O)O)C(=O)O)cc3)cnc2n1 (stereo unspecified) | 208 nM | 2340 nM |
| C/C(=C\c1ccn(-c2ccc(N)c(C(F)(F)F)c2)n1)[C@@H]1C[C@@H]2O[C@]2(C)CCC[C@H](C)[C@H](O)[C@@H](C)C(=O)C(C)(C)[C@@H](O)CC(=O)O1 | 10.6 nM | 14200 nM |
| CCC1CCc2nc3sc(C(=O)Nc4ccccc4F)c(N)c3cc2C1 (stereo unspecified) | 347 nM | > 100000 nM |
| CCN(Cc1ccc(F)cc1)c1ccc(CO)c(Cl)c1 | 14.7 nM | 33.2 nM |
| CN1CCN(C(=O)c2ccc(NC(=O)Nc3ccc(N(C)c4ccnc(Nc5ccc(CS(C)(=O)=O)cc5)n4)cc3)cc2)CC1 | 4720 nM | > 25000 nM |
| O=C1C(=O)c2cc([N+](=O)[O-])ccc2-c2ccccc21 | 1640 nM | 3190 nM |
| C[C@H](c1ccc(Cl)cc1N)N1C(=O)c2cc(I)ccc2N(CCCN2CCN(C)CC2)C(=O)[C@@H]1c1ccc(Cl)cc1 | 1570 nM | 3140 nM |
| CC(C)(Cl)CCC1=C(Cl)C(=O)c2ccccc2C1=O | 1500 nM | 3490 nM |
| COc1cc2c(c(OC)c1OC)-c1ccc(OC)c(=O)cc1[C@@H](NC(=O)CCl)CC2 | < 10 nM | < 10 nM |
| Cc1cc(NC(=O)c2ccc(NS(=O)(=O)CCO)cc2N2CCC3(CC2)CC3)nc(N2CCC(F)(F)CC2)n1 | 69.4 nM | 2930 nM |
| O=C1C=C(Nc2ccccc2)c2ncccc2C1=O | 1570 nM | 3160 nM |
| O=C1C2CC3C(CC2C(=O)[N]1[Sn]([c]1ccccc1)([c]1ccccc1)[c]1ccccc1)C1(Cl)C(Cl)=C(Cl)C3(Cl)C1(Cl)Cl (stereo unspecified) | 120 nM | 280 nM |
| COc1ccc(-c2coc3ncnc(N)c23)cc1 | > 25000 nM | > 25000 nM |
| CCCCCCCCCCCCCOC(=O)c1c(C)[nH]c(/C=C2\N=C(c3ccc[nH]3)C=C2OC)c1C | 385 nM | 44100 nM |
| C#C[C@@]1(O)[C@@H](CO)O[C@@H](n2cc(Cl)c3c(N)ncnc32)[C@@H]1O | 180 nM | 451 nM |
| COc1cc(N2CCC(N3CCN(C)CC3)CC2)ccc1Nc1ncc(Cl)c(Nc2ccccc2P(C)(C)=O)n1 | 1680 nM | 5290 nM |

| Structure (SMILES) | GI50 | TGI |
| --- | --- | --- |
| COc1cccc(-c2nn(-c3ccccc3)cc2-c2ccnc(NCCNS(=O)(=O)c3ccc(C(F)(F)F)cc3)c2)c1 | 3310 nM | 15100 nM |
| COc1ccc(NC(=O)[C@H](C)NC(=O)OC(C)(C)C)cc1C(=O)Nc1cccc(-c2cc(=O)c3c(OC)c(OC)c(OC)cc3o2)c1 | 2250 nM | 6280 nM |
| CN(C)CC/C=C1\c2ccccc2Sc2ccc(Cl)cc21 | 1390 nM | 3020 nM |
| COc1cc2[nH]c(C(=O)c3cc(OC)c(OC)c(OC)c3)c(N)c2cc1C#CCO | 183 nM | > 100000 nM |
| COc1cc2c(c(OC)c1OC)-c1ccc([O-])c(=O)cc1[C@@H](NC(C)=O)CC2.COc1cc2c(c(OC)c1OC)-c1ccc([O-])c(=O)cc1[C@@H](NC(C)=O)CC2.[Cu+2] | 4700 nM | 43200 nM |
| O=S(=O)(NCCNc1cc(-c2cn(-c3ccccc3)nc2-c2cccc(O)c2)ccn1)c1ccc(C(F)(F)F)cc1 | 2050 nM | 5020 nM |
| CCCCCCN(CCCCCC)C(=N)c1ccnc2ccccc12 | 3130 nM | 11100 nM |
| CCc1ccc(C2=C/C(=C/c3ccc(Cl)cc3)C(=O)N2CCc2ccc(S(N)(=O)=O)cc2)cc1 | 1940 nM | 5250 nM |
| NC1=NC(=O)N2CC12 (stereo unspecified) | 76800 nM | 294000 nM |
| Cc1ccc(-c2csc(N(C(=O)N3CCN(c4cc5c(cc4F)c(=O)c(C(=O)O)cn5C4CC4)CC3)c3ccccc3)n2)cc1 | 366 nM | > 100000 nM |
| COc1ccc(C(=O)/C=C/c2cc3ccccc3[nH]c2=O)cc1 | 10500 nM | 23100 nM |
| COc1ccc(OC)c(/C=C/c2nnc(Nc3ccc(Cl)cc3)o2)c1 | 16400 nM | > 100000 nM |
| CS(=O)(=O)c1ccc(N/N=C/c2c(-c3ccc(S(C)(=O)=O)cc3)[nH]c3ccc(F)cc23)cc1 | 3490 nM | > 50000 nM |
| CS(=O)(=O)CCNCc1ccc(-c2ccc3ncnc(Nc4ccc(OCc5ccccc5)c(C(F)(F)F)c4)c3c2)o1 | 1860 nM | 6400 nM |
| Nc1ccccc1NC(=O)c1ccc(CSc2nc(N3CCOCC3)c3cccn3n2)cc1 | 1720 nM | 6470 nM |
| CCN1C(=O)N(CC)C2C1NN=c1s/c(=C3\C(=O)N(CCC(C)C)c4ccccc43)c(=O)n12 (stereo unspecified) | 283 nM | 720 nM |
| O=c1ncc(-c2ccc(C(F)(F)F)cc2)c(NC2CCCCCC2)[nH]1 | 21000 nM | 51400 nM |
| O=c1oc2ccc(Cl)cc2c(=O)n1-c1ccc(Cl)cc1F | 382 nM | 1870 nM |
| CC(C)(C)c1cc(NC(=O)Nc2ccc(-c3cn4c5c(sc4n3)CCc3cn(CCCN4CCCCC4)cc3-5)cc2)no1 | 1840 nM | 3720 nM |
| COc1ccc(C(=S)c2cc(OC)c(OC)c(OC)c2)cc1OC(=O)CCl | 96.4 nM |  |
